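48-hour exposure; five concentrations; linearly interpolated endpoints. At the GI50, growth is halved.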 The source made the active and inactive calls. Rule as the data show it: active = GI50 up to about 1.1 µM and inactive = higher.
Assays:
Assay in all cases: NCI tumour cell line growth inhibition, 48 h
OVCAR-5 = system: OVCAR-5
SK-OV-3 = system: SK-OV-3
M14 = system: M14
OVCAR-3 = system: OVCAR-3
NCI-H226 = system: NCI-H226
ACHN = system: ACHN
SNB-75 = system: SNB-75
TK-10 = system: TK-10
NCI-H23 = system: NCI-H23
SK-MEL-2 = system: SK-MEL-2
SK-MEL-28 = system: SK-MEL-28
U-251 = system: U-251
CCRF-CEM = system: CCRF-CEM
Malme-3M = system: Malme-3M
LOX IMVI = system: LOX IMVI
HOP-62 = system: HOP-62
SF-295 = system: SF-295
EKVX = system: EKVX

| SMILES | GI50 (OVCAR-5) | GI50 (SK-OV-3) | GI50 (M14) | GI50 (OVCAR-3) | GI50 (NCI-H226) | GI50 (ACHN) | GI50 (SNB-75) | GI50 (TK-10) | GI50 (NCI-H23) | GI50 (SK-MEL-2) | GI50 (SK-MEL-28) | GI50 (U-251) | GI50 (CCRF-CEM) | GI50 (Malme-3M) | GI50 (LOX IMVI) | GI50 (HOP-62) | GI50 (SF-295) | GI50 (EKVX) |
| --- | --- | --- | --- | --- | --- | --- | --- | --- | --- | --- | --- | --- | --- | --- | --- | --- | --- | --- |
| CN(C)CCn1cnc2sc3ccccc3c21 | > 100 µM (inactive) | > 100 µM (inactive) | > 100 µM (inactive) | > 100 µM (inactive) | 40.4 µM (inactive) | > 100 µM (inactive) | 22.2 µM (inactive) | > 100 µM (inactive) | > 100 µM (inactive) | > 100 µM (inactive) | > 100 µM (inactive) | > 100 µM (inactive) | > 100 µM (inactive) | > 100 µM (inactive) | > 100 µM (inactive) | > 100 µM (inactive) | > 100 µM (inactive) | > 100 µM (inactive) |
| Cc1ccc(S(=O)(=O)C(C#N)c2nc3ccccc3nc2-n2ccnc2)cc1 (configuration not stated) | > 100 µM (inactive) | > 100 µM (inactive) | > 100 µM (inactive) | > 100 µM (inactive) | 54.8 µM (inactive) | > 100 µM (inactive) | > 100 µM (inactive) | > 100 µM (inactive) | > 100 µM (inactive) | > 100 µM (inactive) | > 100 µM (inactive) | > 100 µM (inactive) | > 100 µM (inactive) | > 100 µM (inactive) | – | > 100 µM (inactive) | > 100 µM (inactive) | > 100 µM (inactive) |
| N#CN1CCC=C(c2cc3ccccc3[nH]2)C1 | > 448 µM (inactive) | > 448 µM (inactive) | – | 92.5 µM (inactive) | > 448 µM (inactive) | 272 µM (inactive) | – | > 448 µM (inactive) | 182 µM (inactive) | 279 µM (inactive) | 382 µM (inactive) | 434 µM (inactive) | 188 µM (inactive) | 442 µM (inactive) | 230 µM (inactive) | > 448 µM (inactive) | 313 µM (inactive) | 270 µM (inactive) |
| CCOC(=O)C1=C(Nc2ccc(NC3=C(C(=O)OCC)C(=O)CS3)cc2)SCC1=O | 22.7 µM (inactive) | 30 µM (inactive) | 20.4 µM (inactive) | 36.7 µM (inactive) | 19.8 µM (inactive) | 22 µM (inactive) | 16.6 µM (inactive) | 30.7 µM (inactive) | 10 µM (inactive) | 16.5 µM (inactive) | 16.8 µM (inactive) | 25.2 µM (inactive) | 29.8 µM (inactive) | 18.6 µM (inactive) | 14.2 µM (inactive) | 34 µM (inactive) | 26.5 µM (inactive) | 35.2 µM (inactive) |
| Cc1cc(C2CCCCC2)n(O)c(=O)c1 [CICLOPIROX OLAMINE] | 8.28 µM (inactive) | 47 µM (inactive) | 14.2 µM (inactive) | – | – | 3.97 µM (inactive) | 5.46 µM (inactive) | 37.1 µM (inactive) | 9.08 µM (inactive) | 21.3 µM (inactive) | 12.6 µM (inactive) | 0.498 µM (active) | 1.1 µM (active) | 15.7 µM (inactive) | 11.9 µM (inactive) | – | 3.81 µM (inactive) | 4.04 µM (inactive) |
| Cc1cc(N(CCC#N)CCC#N)ccc1/N=N/c1ccc([N+](=O)[O-])cc1 | > 100 µM (inactive) | > 10 µM (inactive) | > 100 µM (inactive) | 47.2 µM (inactive) | > 100 µM (inactive) | 95.9 µM (inactive) | > 10 µM (inactive) | 39.8 µM (inactive) | 43 µM (inactive) | > 100 µM (inactive) | > 100 µM (inactive) | 18.6 µM (inactive) | > 100 µM (inactive) | > 100 µM (inactive) | 25.1 µM (inactive) | > 100 µM (inactive) | 56.4 µM (inactive) | > 100 µM (inactive) |
| O=C1/C(=C/c2cccc([N+](=O)[O-])c2)COc2ccccc21 | > 35 µM (inactive) | 30.2 µM (inactive) | 1.83 µM (inactive) | 2.79 µM (inactive) | 3.86 µM (inactive) | 5.13 µM (inactive) | 13.1 µM (inactive) | 23 µM (inactive) | 6.76 µM (inactive) | 6.1 µM (inactive) | 2.92 µM (inactive) | 2.62 µM (inactive) | 1.53 µM (inactive) | 16.1 µM (inactive) | 1.8 µM (inactive) | 11 µM (inactive) | 11.2 µM (inactive) | 25.6 µM (inactive) |
| CCOC(=O)C1C(NC(N)=O)N(Cc2ccccc2)C(=O)N1Cc1ccccc1 (configuration not stated) | 29.3 µM (inactive) | > 100 µM (inactive) | > 100 µM (inactive) | > 100 µM (inactive) | – | > 100 µM (inactive) | > 100 µM (inactive) | > 100 µM (inactive) | > 10 µM (inactive) | > 100 µM (inactive) | > 100 µM (inactive) | 17.3 µM (inactive) | > 100 µM (inactive) | > 100 µM (inactive) | > 100 µM (inactive) | > 100 µM (inactive) | > 100 µM (inactive) | > 100 µM (inactive) |
